According to US9309226B2, “Crystalline form I of tyrosine kinase inhibitor dimaleate and preparation methods thereof” (Jiangsu Hengrui Medicine Co., Ltd., priority 2012, dated 2016):
Entries after “also recorded” stand apart in the source; their conditions may differ.

Assays:
[1] = Stability of the solid placed open in the air under illumination, heating and humidity, HPLC analysis; type: physicochemical; conditions: for HPLC analysis result, 60° C.: heating 60° C.; for HPLC analysis result, RH 90%: humidity RH 90%; for HPLC analysis result, Light: illumination 4500 Lux
Method: The form I crystal of SHR1258 dimaleate prepared in Example 1 and the amorphous form of SHR1258 dimaleate prepared in Example 2 were placed open in the air to test the stability in various conditions including illumination (4500 Lux), heating (60° C.), and humidity (RH 90%).

[2] = Crystal form stability after grinding, heating and pressing, evaluated by X-ray diffraction and DSC; type: physicochemical; conditions: for Stability under grinding, pressure and heating: grinded, heated and pressed, X-ray diffraction and DSC
Excerpt: The form I crystal of SHR1258 dimaleate prepared in Example 1 was grinded, heated and pressed, then evaluated by X-ray diffraction and DSC patterns.

SMILES	HPLC analysis result, 60° C. ([1]; day 0)	HPLC analysis result, 60° C. ([1]; day 5)	HPLC analysis result, 60° C. ([1]; day 10)	HPLC analysis result, RH 90% ([1]; day 0)	HPLC analysis result, RH 90% ([1]; day 5)	HPLC analysis result, RH 90% ([1]; day 10)	Stability under illumination, form I crystal compared with amorphous form [1]	HPLC analysis result, Light ([1]; day 0)	HPLC analysis result, Light ([1]; day 5)	HPLC analysis result, Light ([1]; day 10)	Stability under high temperature and high moisture, compared with amorphous form ([1]; high temperature and high humidity, listed as form I crystal of SHR1258 dimaleate)	Stability under grinding, pressure and heating [2]	Stability under grinding, pressure and heating ([2]; listed as form I crystal of SHR1258 dimaleate)	Crystal (form after process) ([2]; grinding for 10 min under nitrogen atmosphere)	Crystal (form after process) ([2]; heating at 80° C. for 3 hours)	Crystal (form after process) ([2]; pressing into pieces)
CCOc1cc2ncc(C#N)c(Nc3ccc(OCc4ccccn4)c(Cl)c3)c2cc1NC(=O)/C=C/[C@H]1CCCN1C [Amorphous Form]	98.41%	95.24%	93.71%	98.41%	96.95%	96.31%	similar	98.41%	96.96%	96.91%	–	–	–	–	–	–
CCOc1cc2ncc(C#N)c(Nc3ccc(OCc4ccccn4)c(Cl)c3)c2cc1NC(=O)/C=C/[C@H]1CCCN1C [Form I Crystal, (R, E)-N-(4-(3-chloro-4-(pyridin-2-yl-methoxy)phenylamino)-3-cyano-7-ethoxyquinolin-6-yl)-3-(1-methylpyrrolidino-2-yl)acrylamide dimaleate]	99.65%	98.13%	96.86%	99.65%	98.35%	98.35%	similar	99.65%	98.20%	97.91%	significantly better than the amorphous form; also recorded: more stable	good stability	stable	Form I	Form I	Form I
